These results are taken from patent US8134015B2, “Compound inhibiting in vivo phosphorous transport and medicine containing the same” (Kyowa Hakko Kirin Co., Ltd., priority 2003, dated 2012).

pIC50: −log10 of the molar value.

In one test the target is T1, rat NaPi-2b (Rattus norvegicus, UniProt Q9JJ09).
T1 construct: expressed in transfected cells; host or cells: Xenopus oocytes injected with cRNA
T1 sequence (Q9JJ09 1-695): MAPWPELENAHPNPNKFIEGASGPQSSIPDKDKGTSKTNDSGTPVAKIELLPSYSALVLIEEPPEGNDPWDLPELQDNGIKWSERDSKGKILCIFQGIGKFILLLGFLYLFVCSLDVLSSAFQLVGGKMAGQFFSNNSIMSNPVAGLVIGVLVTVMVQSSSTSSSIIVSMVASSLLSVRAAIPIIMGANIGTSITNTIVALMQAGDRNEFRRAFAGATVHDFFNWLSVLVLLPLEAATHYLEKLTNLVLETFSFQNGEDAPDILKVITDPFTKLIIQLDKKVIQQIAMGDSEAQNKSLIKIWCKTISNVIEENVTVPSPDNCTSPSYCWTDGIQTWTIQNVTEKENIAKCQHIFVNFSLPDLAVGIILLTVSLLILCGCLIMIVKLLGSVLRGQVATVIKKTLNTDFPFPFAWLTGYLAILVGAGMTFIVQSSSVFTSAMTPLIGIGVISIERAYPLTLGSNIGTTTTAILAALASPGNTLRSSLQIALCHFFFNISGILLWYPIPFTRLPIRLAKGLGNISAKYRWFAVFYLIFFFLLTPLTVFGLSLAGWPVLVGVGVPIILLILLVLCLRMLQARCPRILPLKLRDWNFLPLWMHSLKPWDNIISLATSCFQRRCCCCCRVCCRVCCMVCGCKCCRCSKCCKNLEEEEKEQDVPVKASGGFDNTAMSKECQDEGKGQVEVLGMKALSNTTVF
In words: Sodium-dependent phosphate uptake of Xenopus oocytes which expressed NaPi-2b (32P). Format: cell-based. As to conditions: Xenopus oocytes expressing rat NaPi-2b, 32P radioactive phosphorus; read-out: IC50 (phosphate uptake inhibitory activity). In short, it runs like this:
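Inhibition at 300 μM and 100 μM was read off one inhibition curve of 32P phosphate uptake. Uptake was measured in Xenopus oocytes cultured 2 days after injection of cRNA for cloned rat NaPi-2b.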
For `COc1cccc(/C=N/NC(=O)c2cc(Br)ccc2NC(=O)c2ccc(CN3CCC(O)CC3)cc2)c1` [Compound 331, N-[4-Bromo-2-(3-methoxy-benzylidene-hydrazinocarbonyl)-phenyl]-4-(4-hydroxy-piperidin-1-ylmethyl)-benzamide], the pIC50 (commonly −log10 of the IC50, conventionally taken in molar units) is 4.80.
Same read-out and setting: as for `CCN(CC)CCN(CCN(CC)CC)Cc1cccc(C(=O)Nc2sc3c(c2C(=O)N/N=C/c2ccc(OC)cc2)CCCC3)c1` [Compound 850, 3-{[Bis-(2-diethylamino-ethyl)-amino]-methyl}-N-[3-(4-methoxy-benzylidene-hydrazinocarbonyl)-4,5,6,7-tetrahydro-benzo[b]-thiophen-2-yl]-benzamide], the figure is 5.51; as for `CCN(CC)CCN(C)Cc1cccc(C(=O)Nc2ccc(OCCOCCOC)cc2C(=O)N/N=C/c2ccc(OC)cc2)c1` [Compound 1037, 3-{[(2-Diethylamino-ethyl)-methyl-amino]-methyl}-N-{2-(4-methoxy-benzylidene-hydrazinocarbonyl)-4-[2-(2-methoxy-ethoxy)-ethoxy]-phenyl}-benzamide], 4.41; as for `COc1ccc(C(=O)Nc2scc(C)c2C(=O)N/N=C/c2ccc(Cl)c(C(F)(F)F)c2)cc1OC` [Compound 522, N-[3-(4-Chloro-3-trifluoromethyl-benzylidene-hydrazinocarbonyl)-4-methyl-thiophen-2-yl]-3,4-dimethoxy-benzamide], 5.96.
Consider `CCN(CC)CCN(C)Cc1cccc(C(=O)Nc2ccc(OCC3CCCCC3)cc2C(=O)N/N=C/c2ccc(C)c(C)c2)c1` [Compound 1048, N-[4-Cyclohexylmethoxy-2-(3,4-dimethyl-benzylidene-hydrazinocarbonyl)-phenyl]-3-{[(2-diethylamino-ethyl)-methyl-amino]-methyl}-benzamide], for which the pIC50 was over 6.00.
Consider `Cc1ccc(/C=N/NC(=O)c2cc(Br)ccc2NC(=O)c2ccc(CSc3ccncc3)cc2)cc1` [Compound 258, N-[4-Bromo-2-(4-methyl-benzylidene-hydrazinocarbonyl)-phenyl]-4-(pyridin-4-ylsulfanylmethyl)-benzamide], for which the pIC50 was over 5.52.
On the same count and under the same terms, as for `O=C(Nc1ccc(Br)cc1C(=O)N/N=C/c1ccc(Cl)c(C(F)(F)F)c1)c1ccc(CSCCCO)cc1` [Compound 278, N-[4-Bromo-2-(4-chloro-3-trifluoromethyl-benzylidene-hydrazinocarbonyl)-phenyl]-4-(3-hydroxy-propylsulfanylmethyl)-benzamide], the figure is 6.80; as for `COc1ccc(C(=O)Nc2ccc(Br)cc2C(=O)N/N=C/c2cccn2C)cc1OC` [Compound 201, N-[4-Bromo-2-(1-methyl-1H-pyrrol-2-ylmethylene-hydrazinocarbonyl)-phenyl]-3,4-dimethoxy-benzamide], 4.95; as for `CCN(CC)CCN(C)Cc1cccc(C(=O)Nc2sc3c(c2C(=O)N/N=C/c2ccc(OC(F)(F)F)cc2)CCCC3)c1` [Compound 1001, 3-{[(2-Diethylamino-ethyl)-methyl-amino]-methyl}-N-[3-(4-trifluoromethoxy-benzylidene-hydrazinocarbonyl)-4,5,6,7-tetrahydro-benzo[b]thiophen-2-yl]-benzamide], over 5.52.
Still for that read-out and setting: as for `O=C(Nc1ccc(Br)cc1C(=O)N/N=C/c1cccc(F)c1)c1ccco1` [Compound 151, Furan-2-carboxylic acid [4-bromo-2-(3-fluoro-benzylidene-hydrazinocarbonyl)-phenyl]-amide], the figure is 5.51; as for `Cc1ccc(/C=N/NC(=O)c2cc(Br)ccc2NC(=O)c2ccc(CN3CCC(N4CCCCC4)CC3)cc2)cc1` [Compound 309, 4-[1,4′]Bipiperidinyl-1′-ylmethyl-N-[4-bromo-2-(4-methyl-benzylidene-hydrazinocarbonyl)-phenyl]-benzamide], 4.82.
The same measure, in the same setting: as for `CN(Cc1ccc(C(=O)Nc2ccc(Br)cc2C(=O)N/N=C/c2ccc(Cl)c(C(F)(F)F)c2)cc1)CC(O)c1ccc(O)cc1` (stereo not shown) [Compound 726, N-[4-Bromo-2-(4-chloro-3-trifluoromethyl-benzylidene-hydrazinocarbonyl)-phenyl]-4-({[2-hydroxy-2-(4-hydroxy-phenyl)-ethyl]-methyl-amino}-methyl)-benzamide], the figure is over 5.52; as for `COc1ccc(C(=O)Nc2ccccc2C(=O)N/N=C/c2cc(C)ccc2C)cc1OC` [Compound 43, N-[2-(2,5-Dimethyl-benzylidene-hydrazinocarbonyl)-phenyl]-3,4-dimethoxy-benzamide], 4.68; as for `O=C(Nc1cscc1C(=O)N/N=C/c1ccc(Cl)c(C(F)(F)F)c1)c1cccc(CN2CCN(CCO)CC2)c1` [Compound 983, N-[4-(4-Chloro-3-trifluoromethyl-benzylidene-hydrazinocarbonyl)-thiophen-3-yl]-3-[4-(2-hydroxy-ethyl)-piperazin-1-ylmethyl]-benzamide], 5.08.
For `O=C(Nc1ccc(Br)cc1C(=O)N/N=C/c1ccc(Cl)c(C(F)(F)F)c1)c1ccc(CNCCN2CCOCC2)cc1` [Compound 714, N-[4-Bromo-2-(4-chloro-3-trifluoromethyl-benzylidene-hydrazinocarbonyl)-phenyl]-4-[(2-morpholin-4-yl-ethylamino)-methyl]-benzamide], the negative logarithm of the IC50 (pIC50) was 5.45.
With `CCN(CC)CCNCc1cccc(C(=O)Nc2scc(C)c2C(=O)N/N=C/c2ccc(OC)cc2)c1` [Compound 586, 3-[(2-Diethylamino-ethylamino)-methyl]-N-[3-(4-methoxy-benzylidene-hydrazinocarbonyl)-4-methyl-thiophen-2-yl]-benzamide], the pIC50 is over 5.52.

The same test, now with this note: phosphate uptake, oocytes expressing rat NaPi-2b; 300 μM, determined from inhibition curve.
For the compound `CCN(CC)CC(O)COc1ccc(NC(=O)c2cccc(CN(CC(C)O)CC(C)O)c2)c(C(=O)N/N=C/c2ccc(C)c(C)c2)c1` (stereo not shown) [Compound 951, 3-{[Bis-(2-hydroxy-propyl)-amino]-methyl}-N-[4-(3-diethylamino-2-hydroxy-propoxy)-2-(3,4-dimethyl-benzylidene-hydrazinocarbonyl)-phenyl]-benzamide], the inhibition (commonly the share of the control response that was lost under treatment) at 300 µM is 68.5%.
On the same count and under the same terms, as for `Cc1ccc(/C=N/NC(=O)c2cc(Br)ccc2NC(=O)c2ccc(CNCCCN(C)c3ccccc3)cc2)cc1` [Compound 758, N-[4-Bromo-2-(4-methyl-benzylidene-hydrazinocarbonyl)-phenyl]-4-{[3-(methyl-phenyl-amino)-propylamino]-methyl}-benzamide], the figure is 58.2%; as for `CC(O)CN(Cc1cccc(C(=O)Nc2ccsc2C(=O)N/N=C/c2ccc(Cl)c(C(F)(F)F)c2)c1)CC(C)O` (stereo not shown) [Compound 993, 3-{[Bis-(2-hydroxy-propyl)-amino]-methyl}-N-[2-(4-chloro-3-trifluoromethyl-benzylidene-hydrazinocarbonyl)-thiophen-3-yl]-benzamide], 39.7%; as for `CCOCCN(CCOCC)Cc1ccc(C(=O)Nc2ccc(Br)cc2C(=O)N/N=C/c2ccc(OC)cc2)cc1` [Compound 739, 4-{[Bis-(2-ethoxy-ethyl)-amino]-methyl}-N-[4-bromo-2-(4-methoxy-benzylidene-hydrazinocarbonyl)-phenyl]-benzamide], 58.9%.
On the same count and under the same terms, as for `CN(C)CCn1nnnc1SCc1cccc(C(=O)Nc2ccc(Cl)cc2C(=O)N/N=C/c2ccc(O)cc2)c1` [Compound 471, N-[4-Chloro-2-(4-hydroxy-benzylidene-hydrazinocarbonyl)-phenyl]-3-[1-(2-dimethylamino-ethyl)-1H-tetrazol-5-ylsulfanylmethyl]-benzamide], the figure is 51%; as for `Cc1csc(C(=O)N/N=C/c2cccc(F)c2)c1NC(=O)c1cccc(CN2CCC(O)CC2)c1` [Compound 542, N-[2-(3-Fluoro-benzylidene-hydrazinocarbonyl)-4-methyl-thiophen-3-yl]-3-(4-hydroxy-piperidin-1-ylmethyl)-benzamide], 41.1%.
Same read-out and setting: under `CCN(CC)CCN(C)Cc1cccc(C(=O)Nc2c(C)csc2C(=O)N/N=C/c2cccc(F)c2)c1` [Compound 529, 3-{[(2-Diethylamino-ethyl)-methyl-amino]-methyl}-N-[2-(3-fluoro-benzylidene-hydrazinocarbonyl)-4-methyl-thiophen-3-yl]-benzamide] stands 81%; under `CCOCCN(CCOCC)Cc1ccc(C(=O)Nc2ccc(Br)cc2C(=O)N/N=C/c2cccc(OC)c2)cc1` [Compound 740, 4-{[Bis-(2-ethoxy-ethyl)-amino]-methyl}-N-[4-bromo-2-(3-methoxy-benzylidene-hydrazinocarbonyl)-phenyl]-benzamide], 58.5%.
Compound `COc1cc(OC)cc(C(=O)Nc2ccc(O)cc2C(=O)N/N=C/c2cccc(F)c2)c1` [Compound 242, N-[2-(3-Fluoro-benzylidene-hydrazinocarbonyl)-4-hydroxy-phenyl]-3,5-dimethoxy-benzamide] gave an inhibition at 300 µM of 37.6%.
